Results taken from the NIST ThermoML archive (doi:10.1016/j.fluid.2017.12.010).

Experiment: xn = mol fraction of the nth substance listed
Conditions: Liquid, Vibrating tube method

CCCCCCCCCCCC [dodecane] + CCCCCCCCCC
Conditions	mass density [kg/m3]
323.11 K, 10000 kPa, x2 = 0.4436	728
323.11 K, 20000 kPa, x2 = 0.4436	735
323.11 K, 30000 kPa, x2 = 0.4436	742
323.12 K, 40000 kPa, x2 = 0.4436	749
323.12 K, 60000 kPa, x2 = 0.4436	761
323.12 K, 80000 kPa, x2 = 0.4436	771
323.13 K, 100000 kPa, x2 = 0.4436	781
323.21 K, 100 kPa, x2 = 0.6433	715
323.21 K, 1000 kPa, x2 = 0.6433	716
323.21 K, 5000 kPa, x2 = 0.6433	720
323.21 K, 10000 kPa, x2 = 0.6433	724
323.21 K, 20000 kPa, x2 = 0.6433	732
323.22 K, 30000 kPa, x2 = 0.6433	739
323.22 K, 40000 kPa, x2 = 0.6433	746
323.22 K, 60000 kPa, x2 = 0.6433	757
323.22 K, 80000 kPa, x2 = 0.6433	768
323.22 K, 100000 kPa, x2 = 0.6433	777
323.23 K, 5000 kPa, x2 = 0.7841	717
323.24 K, 100 kPa, x2 = 0.7841	712
323.24 K, 1000 kPa, x2 = 0.7841	713
323.24 K, 10000 kPa, x2 = 0.7841	721
323.24 K, 20000 kPa, x2 = 0.7841	729
323.24 K, 30000 kPa, x2 = 0.7841	736
323.24 K, 40000 kPa, x2 = 0.7841	743
323.24 K, 60000 kPa, x2 = 0.7841	755
323.24 K, 80000 kPa, x2 = 0.7841	765
323.24 K, 99990 kPa, x2 = 0.7841	775
332.74 K, 100 kPa, x2 = 0	720
332.74 K, 1000 kPa, x2 = 0	721
332.74 K, 5000 kPa, x2 = 0	725
332.74 K, 10000 kPa, x2 = 0	729
332.74 K, 20000 kPa, x2 = 0	737
332.74 K, 30000 kPa, x2 = 0	744
332.74 K, 40000 kPa, x2 = 0	750
332.74 K, 50000 kPa, x2 = 0	757
332.74 K, 60000 kPa, x2 = 0	762
332.74 K, 70000 kPa, x2 = 0	768
332.74 K, 80000 kPa, x2 = 0	773
332.74 K, 90000 kPa, x2 = 0	778
332.75 K, 100000 kPa, x2 = 0	782
332.97 K, 100 kPa, x2 = 0.4436	712
332.98 K, 1000 kPa, x2 = 0.4436	713
332.99 K, 5000 kPa, x2 = 0.4436	717
332.99 K, 10000 kPa, x2 = 0.4436	721
332.99 K, 20000 kPa, x2 = 0.4436	729
333 K, 100 kPa, x2 = 0.2297	716
333 K, 1000 kPa, x2 = 0.2297	717
333 K, 5000 kPa, x2 = 0.2297	720
333 K, 30000 kPa, x2 = 0.4436	736
333 K, 40000 kPa, x2 = 0.4436	743
333.01 K, 10000 kPa, x2 = 0.2297	725
333.01 K, 20000 kPa, x2 = 0.2297	733
333.01 K, 60000 kPa, x2 = 0.4436	755
333.01 K, 80000 kPa, x2 = 0.4436	766
333.01 K, 100000 kPa, x2 = 0.4436	776
333.02 K, 30000 kPa, x2 = 0.2297	740
333.02 K, 40000 kPa, x2 = 0.2297	747
333.02 K, 60000 kPa, x2 = 0.2297	758
333.03 K, 80000 kPa, x2 = 0.2297	769
333.03 K, 100000 kPa, x2 = 0.2297	779
333.06 K, 100 kPa, x2 = 0.7841	705
333.07 K, 1000 kPa, x2 = 0.7841	706
333.07 K, 40000 kPa, x2 = 0.7841	737
333.08 K, 5000 kPa, x2 = 0.7841	710
333.08 K, 10000 kPa, x2 = 0.7841	714
333.08 K, 20000 kPa, x2 = 0.7841	723
333.08 K, 30000 kPa, x2 = 0.7841	730
333.08 K, 60000 kPa, x2 = 0.7841	749
333.08 K, 80000 kPa, x2 = 0.7841	760
333.08 K, 100000 kPa, x2 = 0.7841	770
333.09 K, 100 kPa, x2 = 0.6433	708
333.09 K, 1000 kPa, x2 = 0.6433	709
333.09 K, 5000 kPa, x2 = 0.6433	713
333.09 K, 10000 kPa, x2 = 0.6433	717
333.09 K, 30000 kPa, x2 = 0.6433	733
333.1 K, 20000 kPa, x2 = 0.6433	725
333.1 K, 40000 kPa, x2 = 0.6433	740
333.1 K, 60000 kPa, x2 = 0.6433	752
333.1 K, 80000 kPa, x2 = 0.6433	763
333.1 K, 100000 kPa, x2 = 0.6433	772
342.67 K, 100 kPa, x2 = 0	713
342.67 K, 1000 kPa, x2 = 0	714
342.67 K, 5000 kPa, x2 = 0	718
342.67 K, 10000 kPa, x2 = 0	722
342.67 K, 20000 kPa, x2 = 0	731
342.67 K, 30000 kPa, x2 = 0	738
342.67 K, 40000 kPa, x2 = 0	745
342.67 K, 50000 kPa, x2 = 0	751
342.67 K, 60000 kPa, x2 = 0	757
342.67 K, 69990 kPa, x2 = 0	763
342.67 K, 80000 kPa, x2 = 0	768
342.67 K, 90000 kPa, x2 = 0	773
342.67 K, 100000 kPa, x2 = 0	778
342.92 K, 100 kPa, x2 = 0.2297	709
342.92 K, 100 kPa, x2 = 0.4436	705
342.92 K, 1000 kPa, x2 = 0.2297	710
342.92 K, 1000 kPa, x2 = 0.4436	706
342.92 K, 5000 kPa, x2 = 0.2297	714
342.92 K, 5000 kPa, x2 = 0.4436	710
342.92 K, 10000 kPa, x2 = 0.2297	718
342.92 K, 10000 kPa, x2 = 0.4436	714
342.92 K, 20000 kPa, x2 = 0.2297	727
342.93 K, 100 kPa, x2 = 0.6433	701
342.93 K, 1000 kPa, x2 = 0.6433	702
342.93 K, 20000 kPa, x2 = 0.4436	723
342.93 K, 30000 kPa, x2 = 0.2297	734
342.93 K, 30000 kPa, x2 = 0.4436	731
342.93 K, 40000 kPa, x2 = 0.2297	741
342.93 K, 40000 kPa, x2 = 0.4436	738
342.93 K, 60000 kPa, x2 = 0.2297	753
342.93 K, 60000 kPa, x2 = 0.4436	750
342.93 K, 80000 kPa, x2 = 0.4436	761
342.93 K, 100000 kPa, x2 = 0.4436	771
342.94 K, 5000 kPa, x2 = 0.6433	706
342.94 K, 10000 kPa, x2 = 0.6433	710
342.94 K, 20000 kPa, x2 = 0.6433	719
342.94 K, 30000 kPa, x2 = 0.6433	727
342.94 K, 40000 kPa, x2 = 0.6433	734
342.94 K, 60000 kPa, x2 = 0.6433	747
